Measurements: paper PMC3506555, “[^11C]phenytoin revisited: synthesis by [^11C]CO carbonylation and first evaluation as a P-gp tracer in rats” (EJNMMI Research, 2012)

Columns and labels:
P-gp = experiment: PET brain time-activity curves (SUV), baseline and after tariquidar P-gp block; assay type: in vivo, Sprague–Dawley rats
Text: Following cannulation of the femoral vein, animals were positioned in pairs in a double LSO/LYSO layer high-resolution research tomograph (CTI/Siemens, Knoxville, TN, USA). First, for attenuation and scatter correction purposes, a transmission scan was acquired using a 740-MBq two-dimensional fan-collimated ^137Cs (662 keV) moving point source. Next, a dynamic emission scan was acquired immediately following administration of 17.1 ± 2.1 MBq (mean ± SD) ^11C]phenytoin to each rat. Two animals had one single ^11C]phenytoin scan; two animals had two consecutive scans, and two had three consecutive scans. Finally, all animals underwent an ^18F]FDG scan before being euthanized. Tariquidar, 15 mg·kg^−1, was used to completely block P-gp, while probenecid, 150 mg·kg^−1, was used to inhibit multi-resistant protein (MRP) efflux proteins. Tariquidar and probenecid were administered i.v. 20 min prior to the scan start as a 10-min infusion. All animals, except one, were scanned without any treatment prior to the first ^11C]phenytoin scan. Of the animals that had two scans, one underwent two post-tariquidar scans (animal 4, Table 1). […] Animals that underwent three consecutive scans had one baseline, one post probenecid and one post-tariquidar scan. During each scan, emission data were acquired for 60 min in list mode and rebinned into the following frame sequence: 7 × 10, 1 × 20, 3 × 30, 2 × 60, 2 × 150, 2 × 300 and 4 × 600 s. Following corrections for decay, dead time, attenuation, random and scatter, scans were reconstructed using a 3D ordinary Poisson ordered subsets expectation maximization algorithm. […] PET image data were analyzed using the freely available software package Amide 0.9 [31]. A magnetic resonance (MR)-based rat brain atlas was used to define five regions of interest (ROIs): the hippocampus, occipital cortex, parietal cortex, caudate putamen and cerebellum. The MR atlas including all ROIs was aligned visually with the summed ^18F]FDG image for each rat. ROIs were then projected onto all frames of all ^11C]phenytoin scans, resulting in ^11C]phenytoin time-activity curves for each scan and rat.
During each [^11C]phenytoin scan, arterial blood samples of 0.1 mL were taken at 20 and 40 s and at 1, 2, 5, 15, 30 and 60 min after [^11C]phenytoin injection. For animals that underwent three scans, the amount of blood withdrawn was reduced by replacing the two samples at 15 and 30 min with a single 20-min sample. Plasma was obtained by centrifugation at 4,000 rpm for 5 min at 4°C, and activity in both plasma and whole blood was measured in an automated 1282 Compugamma CS Universal Gamma Counter (LKB Wallac, Turku, Finland), cross-calibrated against the PET scanner. Standardized uptake values (SUVs) as a function of time were derived by normalizing measured radioactivity concentrations against injected dose and body weight.

[1] = Arterial plasma radioactivity concentration during PET scans; assay type: in vivo, Sprague–Dawley rats
Procedure: For animals that underwent three scans, the amount of blood withdrawn was reduced by replacing the two samples at 15 and 30 min with a single 20-min sample. […] Standardized uptake values (SUVs) as a function of time were derived by normalizing measured radioactivity concentrations against injected dose and body weight.

Brain SUV at 60 min (corrected for metabolites) (P-gp; baseline scans): around 0.2
Maximum brain SUV (P-gp; baseline scans): around 0.8
Brain SUV at 60 min (corrected for metabolites) (P-gp; post-tariquidar scans): ~0.3
Maximum brain SUV (P-gp; post-tariquidar scans): ~0.9
Time of maximum brain concentration after bolus injection (P-gp; rats): approximately 5 min
Increase in brain SUV at 10 to 60 min after tariquidar (P-gp; tariquidar 15 mg·kg^−1, rat, on average): about 50%
Initial plasma concentrations after tariquidar treatment versus baseline ([1]; initial part of scan): somewhat lower than at baseline
Plasma concentrations after tariquidar treatment versus baseline ([1]; towards the end of the scans): similar
Compound: O=C1N[11C](=O)NC1(c1ccccc1)c1ccccc1 [[^11C]phenytoin]
